Several values for one entry are separate records, joined by “and”; a condition that tells them apart may be missing. Identical values can stand only once.
Tests used:
[1] = tested on: human umbilical vein endothelial cells (HUVEC); assay: HUVEC proliferation assay co-stimulated with rhVEGF; format: cell-based
Procedure: The HUVEC assay measures the potency of test substances to inhibit in vitro proliferation of human umbilical vein endothelial cells (HUVEC) when co-stimulated with recombinant human vascular endothelial growth factor (rhVEGF).
HUVEC are grown under defined conditions (EGM-2 medium, 37° C., 5% CO2 and 95% humidity). They are seeded into 48-well plates using EBM medium with only 1% serum and incubated for 24 h. This is to ensure that cells are not stimulated before treatment with VEGF and test compound.
Test compounds are diluted in medium to concentrations between 0.05 and 50 μM and dosed together with VEGF165 at 12 ng/ml. This VEGF concentration was determined in a VEGF-dose-response curve to be just sub-optimal for maximum cell proliferation. Cells are incubated for 48 h at above conditions and viable cell density is measured using a tetrazolium compound (MTS). Viable cells reduce MTS into a soluble formazan product, which has an absorbance maximum at 490 nm. The absorbance is directly proportional to cell density.
EBM+1% serum (no VEGF) ? Minimum or Blank
EBM+1% serum (12 ng/ml) ? Maximum

rhVEGF165-biotin = target: T1, rhVEGF165-biotin (Homo sapiens, UniProt P15692); assay: VEGF-Binding ELISA (dose-response)
T1 sequence (P15692 27-191 isoform P15692-4): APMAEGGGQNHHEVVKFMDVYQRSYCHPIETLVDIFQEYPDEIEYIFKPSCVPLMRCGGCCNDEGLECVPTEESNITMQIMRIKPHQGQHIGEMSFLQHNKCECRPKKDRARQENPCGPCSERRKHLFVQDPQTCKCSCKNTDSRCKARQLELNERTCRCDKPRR
Procedure: The potency of test substances as a VEGF-neutralising moiety is measured in an ELISA format. This assay measures the solution-phase interaction between rhVEGF165-biotin and test sample. Unbound VEGF165-biotin is then immobilised on a solid-phase anti-hVEGF antibody (R&D systems MAB293). The biotin signal is detected with streptavidin-alkaline phosphatase, which gives a colorimetric signal when incubated with p-nitrophenyl phosphate. Plates are read in a spectrophotometer at 405 nm.
(§1) Any test compound that binds to VEGF165-biotin and prevents it from binding to the antibody will lower the color signal and be recognized as a “hit”. Hits were defined as compounds that show>60% inhibition.
VEGF165-biotin+assay buffer ? 0% inhibition
Soluble VEGF receptor (sflt @ 4 nM) ? 70% inhibition
(§2) The primary screening of all library compounds was done at a compound concentration of 50 μM, followed by measuring dose-response effects of “hits” between 0.05 and 500 μM for the calculation of IC50 values.
The compounds were dissolved in DMSO and it was shown that the solvent has no effect on the assay at this concentration.

VEGF = target: T2, VEGF (Homo sapiens, UniProt P15692); assay: Initial medium throughput ELISA assay for inhibition of VEGF (primary screening); format: binding; conditions: initial assessment, primary screening at compound concentration of 50 μM, repeats listed; for Inhibition (%): 50 µM
T2 sequence (P15692 27-191 isoform P15692-4): T1 sequence (P15692 27-191 isoform P15692-4)
Procedure: Initially the compounds were assayed for inhibition of VEGF in a medium throughput ELISA assay before detailed assessment in the HUVEC and VEGF binding assays in examples in 9 and 10. The data from this initial assessment is presented in table 5 in the column labelled “Inhibition %”.
as §1, §2

[2] = Homo sapiens, HUVEC, 48 h, Table 5, VEGF165 at 12 ng/ml, MTS, repeats listed
[3] = Homo sapiens, HUVEC, Table 6, first test (unmarked value)
[4] = Table 6, first test (unmarked value)
[5] = Table 5, VEGF165 at 12 ng/ml, 48 h, MTS, repeats listed

SMILES	IC50 (rhVEGF165-biotin; Table 5, repeats listed)	inhibition at 50 µM (VEGF)	IC50 [1, 2]	other results
COc1ccc(C(N)=O)cc1NC(=O)c1csc(C2CCN(C(=O)c3ccc(OC)c(OC)c3OC)CC2)n1 [Compound 1506-03211]	132 µM	–	–	–
COc1ccc(C(N)=O)cc1NC(=O)c1csc(C2CCN(C(=O)NCCC3=CCCCC3)CC2)n1 [Compound 1506-07554]	142 µM	–	35 µM	–
NC(=O)Cc1ccc(Cl)c(NC(=O)c2csc(C3CCN(C(=O)CCc4ccco4)CC3)n2)c1 [Compound 1633-01861]	–	–	–	IC50 [1, 3]: 0.803 µM; IC50 (rhVEGF165-biotin; [4]): 13 µM
COc1ccc(C(N)=O)cc1NC(=O)c1csc(C2CCN(C(=O)N3CCN(c4ccccn4)CC3)CC2)n1 [Compound 1506-08218, N-[5-(aminocarbonyl)-2-methoxyphenyl]-2-(1-{[4-(2-pyridinyl)-1-piperazinyl]carbonyl}-4-piperidinyl)-1,3-thiazole-4-carboxamide]	14.8 µM	52%	15.4 µM	Inhibition (%) (VEGF): 60% and 62%
COCCOCCOCC(=O)N1CCC(c2nc(C(=O)Nc3cc(C(N)=O)ccc3OC)cs2)CC1 [Compound 1506-02159]	128 µM	–	–	–
COc1ccc(C(N)=O)cc1NC(=O)c1csc(C2CCN(C(=O)c3cc(OC)c4ccccc4c3)CC2)n1 [Compound 1506-01810]	136 µM	–	5.6 µM	–
COc1ccc(C(N)=O)cc1NC(=O)c1csc(C2CCN(C(=O)C3C(C)(C)C3(C)C)CC2)n1 [Compound 1506-01638]	71 µM and > 100 µM	89%	5.4 µM	IC50 [1, 5]: 6 µM
COc1ccc(C(N)=O)cc1NC(=O)c1csc(C2CCN(C(=O)c3c(-c4ccccc4)noc3C)CC2)n1 [Compound 1506-00404]	153 µM	–	10.4 µM	–
NC(=O)c1ccc(Cl)c(NC(=O)c2csc(C3CCN(C(=O)CCc4ccco4)CC3)n2)c1 [Compound 1633-00377]	–	–	–	IC50 [1, 3]: 0.222 µM; IC50 (rhVEGF165-biotin; [4]): 5 µM
NC(=O)c1ccc(Cl)c(NC(=O)c2csc(C3CCN(C(=O)Cc4ccccc4Cl)CC3)n2)c1 [Compound 1633-00375]	–	–	–	IC50 ([1]; Homo sapiens, HUVEC, Table 6, **tested after re-synthesised, $solubility problems): 17 µM; IC50 [1, 3]: 0.448 µM; IC50 (rhVEGF165-biotin; Table 6, **tested after re-synthesised, $solubility problems): 9 µM; IC50 (rhVEGF165-biotin; [4]): 5 µM
COc1ccc(C(N)=O)cc1NC(=O)c1csc(C2CCN(C(=O)c3cnn(-c4ccccc4)c3)CC2)n1 [Compound 1506-08772]	54 µM and 126 µM	91%	25 µM	–
COc1ccc(C(N)=O)cc1NC(=O)c1csc(C2CCN(C(=O)c3nnc4cc(C)nn4c3C)CC2)n1 [Compound 1506-00581, N-[5-(aminocarbonyl)-2-methoxyphenyl]-2-{1-[(4,7-dimethylpyrazolo[5,1-c][1,2,4]triazin-3-yl)carbonyl]-4-piperidinyl}-1,3-thiazole-4-carboxamide]	4.4 µM and 5 µM	88%	30 µM	IC50 [1, 5]: 31 µM
C=CCCOc1ccc(C(=O)N2CCC(c3nc(C(=O)Nc4cc(C(N)=O)ccc4Cl)cs3)CC2)cc1 [Compound 1633-00884]	–	–	–	IC50 [1, 3]: 0.649 µM; IC50 (rhVEGF165-biotin; [4]): 30 µM

Now from value to compound, other results behind:

IC50 (rhVEGF165-biotin; Table 5, repeats listed)	inhibition at 50 µM (VEGF)	SMILES	IC50 [1, 2]	other results
3.6 µM	–	COc1ccc(C(=O)N2CCC(c3nc(C(=O)Nc4cc(C(N)=O)ccc4OC)cs3)CC2)cc1 [Compound 1506-03560]	16.4 µM	–
6.6 µM	93%	COc1ccc(C(N)=O)cc1NC(=O)c1csc(C2CCN(C(=O)c3ccccc3C(F)(F)F)CC2)n1 [Compound 1506-03388]	23 µM	Inhibition (%) (VEGF): 87% and 90%
7.3 µM and 1.5 µM	88%	COc1ccc(C(N)=O)cc1NC(=O)c1csc(C2CCN(C(=S)Nc3ccc(N(C)C)cc3)CC2)n1 [Compound 1506-06813, N-[5-(aminocarbonyl)-2-methoxyphenyl]-2-[1-({[4-(dimethylamino)phenyl]amino}carbonothioyl)-4-piperidinyl]-1,3-thiazole-4-carboxamide]	9.7 µM	IC50 [1, 5]: 8.2 µM
4.5 µM	77%	COc1ccc(C(N)=O)cc1NC(=O)c1csc(C2CCN(C(=O)COc3ccc(C)c(C)c3)CC2)n1 [Compound 1506-03914, N-[5-(aminocarbonyl)-2-methoxyphenyl]-2-{1-[(3,4-dimethylphenoxy)acetyl]-4-piperidinyl}-1,3-thiazole-4-carboxamide]	17 µM	Inhibition (%) (VEGF): 70% and 81%
–	60%	COc1ccc(C(N)=O)cc1NC(=O)c1csc(C2CCN(C(=O)Cc3ccccc3Cl)CC2)n1 [Compound 1506-03737, N-[5-(aminocarbonyl)-2-methoxyphenyl]-2-{1-[(2-chlorophenyl)acetyl]-4-piperidinyl}-1,3-thiazole-4-carboxamide]	9 µM	Inhibition (%) (VEGF): 70% and 74%
105 µM	–	COc1ccc(C(N)=O)cc1NC(=O)c1csc(C2CCN(C(=O)c3c(F)cccc3Cl)CC2)n1 [Compound 1506-03039]	4.2 µM	–
29 µM	–	COc1ccc(C(N)=O)cc1NC(=O)c1csc(C2CCN(C(=O)Cc3c[nH]c4ccccc34)CC2)n1 [Compound 1506-00935]	–	–
6.5 µM	–	C=CCSc1ncccc1C(=O)N1CCC(c2nc(C(=O)Nc3cc(C(N)=O)ccc3OC)cs2)CC1 [Compound 1506-02331, 2-(1-{[2-(allylsulfanyl)-3-pyridinyl]carbonyl}-4-piperidinyl)-N-[5-(aminocarbonyl)-2-methoxyphenyl]-1,3-thiazole-4-carboxamide]	22.8 µM	Inhibition (%) (VEGF): 43% and 73% and 79%
16 µM and 15.5 µM	–	COc1ccc(C(N)=O)cc1NC(=O)c1csc(C2CCN(C(=O)c3ccc(OC(C)C)cc3)CC2)n1 [Compound 1506-04091]	–	–
11 µM	–	COc1ccc(C(N)=O)cc1NC(=O)c1csc(C2CCN(C(=O)Cc3ccc(SC)cc3)CC2)n1 [Compound 1506-08674]	–	–
11 µM and 13.5 µM	85%	COc1ccc(C(N)=O)cc1NC(=O)c1csc(C2CCN(C(=O)c3cc4ccccc4o3)CC2)n1 [Compound 1506-01284, N-[5-(aminocarbonyl)-2-methoxyphenyl]-2-[1-(1-benzofuran-2-ylcarbonyl)-4-piperidinyl]-1,3-thiazole-4-carboxamide]	10.1 µM	IC50 [1, 5]: 12.6 µM
16.7 µM	–	COc1ccc(C(N)=O)cc1NC(=O)c1csc(C2CCN(C(=O)Cc3ccc(F)cc3)CC2)n1 [Compound 1506-01112]	26 µM	–
173 µM	–	CC#CCOC(=O)N1CCC(c2nc(C(=O)Nc3cc(C(N)=O)ccc3OC)cs2)CC1 [Compound 1506-07095]	–	–
4 µM	88%	COc1ccc(C(N)=O)cc1NC(=O)c1csc(C2CCN(C(=O)C#Cc3ccccc3)CC2)n1 [Compound 1506-01461, N-[5-(aminocarbonyl)-2-methoxyphenyl]-2-[1-(3-phenyl-2-propynoyl)-4-piperidinyl]-1,3-thiazole-4-carboxamide]	11 µM	Inhibition (%) (VEGF): 75% and 83%

— patent US20060135501A1, “Piperidinyl-thiazole carboxylic acid derivatives as angiogenesis inhibitors” (priority 2002, published 2006)
